Data on 14 compounds can be found in patent publication US10030047B2 (Hoffmann-La Roche Inc., priority 2015, dated 2018).

In brackets after ≈: the same amount, converted by molar mass.

The subject of this assay is A. baumannii strain ATCC19606. Kind of assay: Minimum inhibitory concentration (MIC) determination, microbroth dilution (CLSI). In kind it is cell-based. Particulars: Acinetobacter baumannii; A. baumannii ATCC19606; CAMHB; read after 20 hours; >=80% growth inhibition; read-out: ATCC19606 MIC. The gist of the method: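 CLSI broth microdilution in cation-adjusted Mueller Hinton broth with twofold compound dilutions and ~5×10^5 CFU/ml inoculum, incubated at 35±2 °C. MIC read after 20 h as lowest concentration inhibiting ≥80% of growth, by eye and OD 600 nm.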
In general, MIC refers to the lowest concentration found to suppress growth. In the case of `COc1cc(Cl)c2c(c1)CNC(=O)[C@H](Cc1c[nH]c3ccccc13)N(C)C(=O)[C@H](CCCCN)NC(=O)[C@H](CCCN)NCc1ccccc1S2` [Example 49, (12S,15S,18S)-15-(4-Amino-butyl)-18-(3-amino-propyl)-4-chloro-12-(1H-indol-3-ylmethyl)-6-methoxy-13-methyl-2-thia-10,13,16,19-tetraaza-tricyclo[19.4.0.0*3,8*]pentacosa-1(25),3,5,7,21,23-hexaene-11,14,17-trione], the MIC is 0.5 µg/mL (≈ 0.681 µM).
`COc1cc(C)c2c(c1)CNC(=O)[C@H](Cc1c[nH]c3ccccc13)N(C)C(=O)[C@H](CCCCN)NC(=O)[C@H](CCCN)NCc1ccccc1S2` [Example 50, (12S,15S,18S)-15-(4-Amino-butyl)-18-(3-amino-propyl)-12-(1H-indol-3-ylmethyl)-6-methoxy-4,13-dimethyl-2-thia-10,13,16,19-tetraaza-tricyclo[19.4.0.0*3,8*]pentacosa-1(25),3,5,7,21,23-hexaene-11,14,17-trione]: the MIC was 0.25 µg/mL (≈ 0.35 µM).
To `Cc1cccc2c1Sc1ncccc1CN[C@@H](CCCN)C(=O)N[C@@H](CCCCN)C(=O)N(C)[C@@H](Cc1c[nH]c3ccccc13)C(=O)NC2` [Example 51, (11S,14S,17S)-14-(4-Amino-butyl)-11-(3-amino-propyl)-17-(1H-indol-3-ylmethyl)-16,25-dimethyl-2-thia-4,10,13,16,19-pentaaza-tricyclo[19.4.0.0*3,8*]pentacosa-1(25),3,5,7,21,23-hexaene-12,15,18-trione] belongs 4 µg/mL (≈ 5.84 µM); to `CN1C(=O)[C@H](CCCCN)NC(=O)[C@H](CCCN)NCc2cccnc2Sc2ccc(Cl)c(F)c2CNC(=O)[C@@H]1Cc1c[nH]c2ccccc12` [Example 52, (11S,14S,17S)-14-(4-Amino-butyl)-11-(3-amino-propyl)-23-chloro-22-fluoro-17-(1H-indol-3-ylmethyl)-16-methyl-2-thia-4,10,13,16,19-pentaaza-tricyclo[19.4.0.0*3,8*]pentacosa-1(25),3(8),4,6,21,23-hexaene-12,15,18-trione], 0.5 µg/mL (≈ 0.691 µM); to `CN1C(=O)[C@H](CCCCN)NC(=O)[C@H](CCCN)NCc2cccnc2Sc2cccc(C(F)(F)F)c2CNC(=O)[C@@H]1Cc1c[nH]c2ccccc12` [Example 53, (11S,14S,17S)-14-(4-Amino-butyl)-11-(3-amino-propyl)-17-(1H-indol-3-ylmethyl)-16-methyl-22-trifluoromethyl-2-thia-4,10,13,16,19-pentaaza-tricyclo[19.4.0.0*3,8*]pentacosa-1(25),3,5,7,21,23-hexaene-12,15,18-trione], 1 µg/mL (≈ 1.35 µM).
To `CN1C(=O)[C@H](CCCCN)NC(=O)[C@H](CCCN)NCc2cccnc2Sc2c(Cl)ccc(F)c2CNC(=O)[C@@H]1Cc1c[nH]c2ccccc12` [Example 54, (11S,14S,17S)-14-(4-Amino-butyl)-1-(3-amino-propyl)-25-chloro-22-fluoro-17-(1H-indol-3-ylmethyl)-16-methyl-2-thia-4,10,13,16,19-pentaaza-tricyclo[19.4.0.0*3,8*]pentacosa-1(25),3(8),4,6,21,23-hexaene-12,15,18-trione] belongs 1 µg/mL (≈ 1.38 µM); to `Cc1cc(Cl)cc2c1Sc1ccccc1CN[C@@H](CCCN)C(=O)N[C@@H](CCCCN)C(=O)N(C)[C@@H](Cc1c[nH]c3ccccc13)C(=O)NC2` [Example 55, (12S,15S,18S)-15-(4-Amino-butyl)-18-(3-amino-propyl)-6-chloro-12-(1H-indol-3-ylmethyl)-4,13-dimethyl-2-thia-10,13,16,19-tetraaza-tricyclo[19.4.0.0*3,8*]pentacosa-1(25),3,5,7,21,23-hexaene-11,14,17-trione], 0.5 µg/mL (≈ 0.696 µM); to `CN1C(=O)[C@H](CCCCN)NC(=O)[C@H](CCCN)NCc2cc(F)ccc2Sc2ccccc2CNC(=O)[C@@H]1Cc1c[nH]c2ccccc12` [Example 56, (12S,15S,18S)-15-(4-Amino-butyl)-18-(3-amino-propyl)-23-fluoro-12-(1H-indol-3-ylmethyl)-13-methyl-2-thia-10,13,16,19-tetraaza-tricyclo[19.4.0.0*3,8*]pentacosa-1(25),3,5,7,21,23-hexaene-11,14,17-trione], 16 µg/mL (≈ 23.3 µM).
On to `Cc1[nH]c2ccccc2c1C[C@H]1C(=O)NCc2cc(Cl)ccc2Sc2ccccc2CN[C@@H](CCCN)C(=O)N[C@@H](CCCCN)C(=O)N1C` [Example 57, (12S,15S,18S)-15-(4-Amino-butyl)-18-(3-amino-propyl)-6-chloro-13-methyl-12-(2-methyl-1H-indol-3-ylmethyl)-2-thia-10,13,16,19-tetraaza-tricyclo[19.4.0.0*3,8*]pentacosa-1(21),3,5,7,22,24-hexaene-11,14,17-trione], for which the MIC worked out at 0.5 µg/mL (≈ 0.696 µM).
The same measure for `Cc1cccc2c1Sc1ccccc1CN[C@@H](CCCN)C(=O)N[C@@H](CCCCN)C(=O)N(C)[C@@H](Cc1c(C)[nH]c3ccccc13)C(=O)NC2` [Example 58, (12S,15S,18S)-15-(4-Amino-butyl)-18-(3-amino-propyl)-4,13-dimethyl-12-(2-methyl-1H-indol-3-ylmethyl)-2-thia-10,13,16,19-tetraaza-tricyclo[19.4.0.0*3,8*]pentacosa-1(21),3,5,7,22,24-hexaene-11,14,17-trione]: 0.5 µg/mL (≈ 0.716 µM); for `Cc1[nH]c2ccccc2c1C[C@H]1C(=O)NCc2cc(Cl)cc(Cl)c2Sc2ccccc2CN[C@@H](CCCN)C(=O)N[C@@H](CCCCN)C(=O)N1C` [Example 59, (12S,15S,18S)-15-(4-Amino-butyl)-18-(3-amino-propyl)-4,6-dichloro-13-methyl-12-(2-methyl-1H-indol-3-yl)-2-methyl)-2-thia-10,13,16,19-tetraaza-tricyclo[19.4.0.0*3,8*]pentacosa-1(21),3,5,7,22,24-hexaene-11,14,17-trione]: 0.5 µg/mL (≈ 0.664 µM); for `C[C@@H]1NC(=O)[C@H](Cc2c[nH]c3ccccc23)N(C)C(=O)[C@H](CCCCN)NC(=O)[C@H](CCCN)NCc2ccccc2Sc2c(Cl)cccc21` [Example 60, (9S,12S,15S,18S)-15-(4-Amino-butyl)-18-(3-amino-propyl)-4-chloro-12-(1H-indol-3-ylmethyl)-9,13-dimethyl-2-thia-10,13,16,19-tetraaza-tricyclo[19.4.0.0*3,8*]pentacosa-1(25),3,5,7,21,23-hexaene-11,14,17-trione]: 2 µg/mL (≈ 2.78 µM).
As for `COc1ccc2c(c1)CNC(=O)[C@H](Cc1c[nH]c3ccccc13)N(C)C(=O)[C@H](CCCCN)NC(=O)[C@H](CCCN)NCc1cccnc1S2` [Example 61, (11S,14S,17S)-14-(4-Amino-butyl)-11-(3-amino-propyl)-17-(1H-indol-3-ylmethyl)-23-methoxy-16-methyl-2-thia-4,10,13,16,19-pentaaza-tricyclo[19.4.0.0*3,8*]pentacosa-1(25),3,5,7,21,23-hexaene-12,15,18-trione], the MIC was 4 µg/mL (≈ 5.71 µM).
As to `CN1C(=O)[C@H](CCCCN)NC(=O)[C@H](CCCN)NCc2cccnc2Sc2c(Cl)cc(C(F)(F)F)cc2CNC(=O)[C@@H]1Cc1c[nH]c2ccccc12` [Example 62, (11S,14S,17S)-14-(4-Amino-butyl)-11-(3-amino-propyl)-25-chloro-17-(1H-indol-3-ylmethyl)-16-methyl-23-trifluoromethyl-2-thia-4,10,13,16,19-pentaaza-tricyclo[19.4.0.0*3,8*]pentacosa-1(25),3,5,7,21,23-hexaene-12,15,18-trione], the MIC was determined as 0.12 µg/mL (≈ 0.155 µM).
